Experimental data reported in article PMC9490236, “Accurate de novo design of membrane-traversing macrocycles” (Cell, 2022).
Where a SMILES comes first, the peptide text is derived from it. [ ]: non-standard residue; d: D form. dNMeF = CN[C@H](Cc1ccccc1)C(=O)O; NMeL = CN[C@@H](CC(C)C)C(=O)O; dNMeL = CN[C@H](CC(C)C)C(=O)O; dNMeV = CN[C@@H](C(=O)O)C(C)C; NMeV = CN[C@H](C(=O)O)C(C)C

Assays:
[1] = PAMPA
in vitro = conditions: PAMPA, PAMPA_Papp_Avg

Row | Compound | PAMPA_R1 [1] | PAMPA_R3 [1] | Papp (in vitro) | PAMPA_Papp_Avg [1]
1 | CC(C)C[C@H]1NC(=O)[C@@H]2CCCN2C(=O)[C@H]2CCCN2C(=O)[C@H](C(C)C)NC(=O)[C@@H](CC(C)C)NC(=O)[C@@H]2CCCN2C(=O)[C@H]2CCCN2C(=O)[C@H](C(C)C)NC1=O (single isomer, unassigned) [D8.12 p1, DLEU VAL DPRO PRO DLEU VAL DPRO PRO] | 1.52E-07 | 1.92E-07 | 0.169 ×10⁻⁶ cm/s | 
2 | CC(C)[C@@H]1C(=O)N[C@@H](Cc2ccccc2)C(=O)N2CCC[C@H]2C(=O)N(C)[C@H](Cc2ccccc2)C(=O)N[C@H](C)C(=O)N2CCC[C@H]2C(=O)N1C (single isomer, unassigned) [Design D6.8.p1, *DPHE DALA PRO *DVAL PHE PRO] | 4.07e-06 cm/s | 3.58e-06 cm/s | 3.47 ×10⁻⁶ cm/s | 
3 | CC(C)C[C@H]1C(=O)N2CCC[C@@H]2C(=O)N[C@@H](Cc2ccccc2)C(=O)N2CCC[C@H]2C(=O)N[C@H](C(C)C)C(=O)N[C@H](Cc2ccccc2)C(=O)N1C (single isomer, unassigned) [Design D6.9.p1, DVAL DPHE *LEU DPRO PHE PRO] | 4.01e-06 cm/s | 6.97e-06 cm/s | 5.29 ×10⁻⁶ cm/s | 
4 | CC(C)C[C@H]1NC(=O)[C@H]2CCCN2C(=O)[C@@H]2CCCN2C(=O)[C@@H](Cc2ccccc2)NC(=O)[C@@H](C(C)C)NC(=O)[C@H](CC(C)C)N(C)C(=O)[C@@H](Cc2ccccc2)NC1=O (single isomer, unassigned) [Design D7.7.p1, PRO DPRO DLEU DPHE *LEU DVAL DPHE] | 8.16e-06 cm/s | 9.31e-06 cm/s | 8.43 ×10⁻⁶ cm/s | 
5 | CC[C@H](C)[C@@H]1NC(=O)[C@H](Cc2ccccc2)NC(=O)[C@H]2CCCN2C(=O)[C@H]([C@@H](C)CC)NC(=O)[C@H](C(C)C)NC(=O)[C@@H](C)NC(=O)[C@H]2CCCN2C1=O (single isomer, unassigned) [Design D7.8.p1, VAL ILE DPRO PHE ILE DPRO DALA] | 4.5e-06 cm/s | 6.04e-06 cm/s | 4.87 ×10⁻⁶ cm/s | 
6 | CC[C@@H](C)[C@H]1NC(=O)[C@H](CC(C)C)N(C)C(=O)[C@H]2CCCN2C(=O)[C@H](CC(C)C)NC(=O)[C@H](Cc2ccccc2)N(C)C(=O)CN(C)C(=O)[C@@H](C(C)C)NC(=O)[C@H](C)NC(=O)[C@H]2CCCN2C(=O)[C@@H]2CCCN2C1=O (single isomer, unassigned) [Design D10.58.p1, *GLY *PHE LEU DPRO *LEU DILE PRO DPRO ALA DVAL] | 3.35E-07 | 4.44E-07 | 0.376 ×10⁻⁶ cm/s | 
7 | CC[C@@H](C)[C@H]1NC(=O)[C@H](CC(C)C)N(C)C(=O)[C@H]2CCCN2C(=O)[C@H](CC(C)C)NC(=O)[C@@H](Cc2ccccc2)N(C)C(=O)[C@H](CC(C)C)N(C)C(=O)[C@@H](C(C)C)NC(=O)[C@H](C)NC(=O)[C@H]2CCCN2C(=O)[C@@H]2CCCN2C1=O (single isomer, unassigned) [Design D10.60.p1, *LEU *DPHE LEU DPRO *LEU DILE PRO DPRO ALA DVAL] | 6.58E-07 | 1.13E-06 | 0.65 ×10⁻⁶ cm/s | 
8 | CC(C)C[C@@H]1C(=O)N(C)[C@@H](CC(C)C)C(=O)N2CCC[C@@H]2C(=O)N[C@H](CC(C)C)C(=O)N[C@H](C)C(=O)N2CCC[C@@H]2C(=O)N2CCC[C@H]2C(=O)N[C@@H](C)C(=O)N[C@H](Cc2ccccc2)C(=O)N[C@H](CC(C)C)C(=O)N[C@@H](C(C)C)C(=O)N1C (single isomer, unassigned) [Design D11.9.p1, VAL *DLEU *LEU DPRO DLEU DALA DPRO PRO ALA DPHE DLEU] | 1.04E-06 | 2.42E-07 | 0.641 ×10⁻⁶ cm/s | 
9 | CC[C@@H](C)[C@H]1NC(=O)[C@@H](Cc2ccccc2)NC(=O)[C@@H]2CCCN2C(=O)[C@@H]([C@H](C)CC)NC(=O)[C@@H](Cc2ccccc2)NC(=O)[C@@H]2CCCN2C1=O [Design D6.1, DILE PRO DPHE DILE PRO DPHE] (cyclo(P[dF][dI]P[dF][dI])) | 3.78e-06 cm/s | 3.92e-06 cm/s | 3.34 ×10⁻⁶ cm/s | 
10 | CC[C@@H](C)[C@H]1NC(=O)[C@@H](Cc2ccccc2)N(C)C(=O)[C@@H]2CCCN2C(=O)[C@@H]([C@H](C)CC)NC(=O)[C@@H](Cc2ccccc2)N(C)C(=O)[C@@H]2CCCN2C1=O [Design D6.2, DILE PRO *DPHE DILE PRO *DPHE] (cyclo(P[dNMeF][dI]P[dNMeF][dI])) | 1.72e-05 cm/s | 1.15e-05 cm/s | 12.1 ×10⁻⁶ cm/s | 
11 | CC(C)C[C@H]1NC(=O)[C@@H]2CCCN2C(=O)[C@@H]2CCCN2C(=O)[C@@H](C)NC(=O)[C@@H](Cc2ccccc2)NC(=O)[C@H]2CCCN2C1=O [Design D6.3, DPRO DPHE DALA PRO PRO DLEU] (cyclo(PP[dL][dP][dF][dA])) | 5.23e-06 cm/s | 7.03e-07 cm/s | 1.99 ×10⁻⁶ cm/s | 
12 | CC(C)C[C@H]1NC(=O)[C@@H]2CCCN2C(=O)[C@@H]2CCCN2C(=O)[C@@H](C)NC(=O)[C@@H](Cc2ccccc2)N(C)C(=O)[C@H]2CCCN2C1=O [Design D6.4, DPRO *DPHE DALA PRO PRO DLEU] (cyclo(PP[dL][dP][dNMeF][dA])) | 1.85e-05 cm/s | 1.58e-05 cm/s | 13.9 ×10⁻⁶ cm/s | 
13 | CC(C)[C@@H]1NC(=O)[C@@H]2CCCN2C(=O)[C@@H]2CCCN2C(=O)[C@@H](Cc2ccccc2)NC(=O)[C@@H]2CCCN2C(=O)[C@@H](Cc2ccccc2)NC1=O [Design D6.5, PRO PRO VAL DPHE PRO DPHE] (cyclo(PPV[dF]P[dF])) | 3.17e-06 cm/s | 3.12e-06 cm/s | 2.41 ×10⁻⁶ cm/s | 
14 | CC(C)[C@H]1C(=O)N[C@H](Cc2ccccc2)C(=O)N2CCC[C@H]2C(=O)N[C@H](Cc2ccccc2)C(=O)N2CCC[C@H]2C(=O)N2CCC[C@H]2C(=O)N1C [Design D6.6, PRO PRO *VAL DPHE PRO DPHE] (cyclo([NMeV][dF]P[dF]PP)) | 2.64e-06 cm/s | 6.73e-06 cm/s | 3.64 ×10⁻⁶ cm/s | 
15 | CC(C)[C@H]1NC(=O)[C@@H]2CCCN2C(=O)[C@@H](C)NC(=O)[C@@H](Cc2ccccc2)NC(=O)[C@@H]2CCCN2C(=O)[C@H](Cc2ccccc2)NC1=O [Design D6.7, DPHE DALA PRO DVAL PHE PRO] (cyclo(FP[dF][dA]P[dV])) | 6.27e-07 cm/s | 3.67e-07 cm/s | 0.424 ×10⁻⁶ cm/s | 
16 | CC(C)C[C@H]1C(=O)N2CCC[C@@H]2C(=O)N[C@@H](Cc2ccccc2)C(=O)N2CCC[C@H]2C(=O)N(C)[C@H](C(C)C)C(=O)N[C@H](Cc2ccccc2)C(=O)N1C [Design D6.10, *DVAL DPHE *LEU DPRO PHE PRO] (cyclo(FP[dNMeV][dF][NMeL][dP])) | 1.23e-05 cm/s | 1.13e-05 cm/s | 11.6 ×10⁻⁶ cm/s | 
17 | CC[C@H](C)[C@@H]1NC(=O)[C@H]2CCCN2C(=O)[C@@H]2CCCN2C(=O)[C@H](CC(C)C)NC(=O)[C@@H](C(C)C)NC(=O)[C@@H](CC(C)C)N(C)C(=O)[C@@H]2CCCN2C1=O [Design D7.1, PRO *DLEU DVAL LEU PRO DPRO ILE] (cyclo(IP[dNMeL][dV]LP[dP])) | 2.76e-06 cm/s | 3.53e-06 cm/s | 2.93 ×10⁻⁶ cm/s | 
18 | CC[C@H](C)[C@@H]1NC(=O)[C@H](CC(C)C)N(C)C(=O)[C@H]2CCCN2C(=O)[C@@H](CC(C)C)NC(=O)[C@H](CC(C)C)NC(=O)[C@@H](CC(C)C)N(C)C(=O)[C@@H]2CCCN2C1=O [Design D7.2, DLEU DPRO *LEU ILE PRO *DLEU LEU] (cyclo(IP[dNMeL]L[dL][dP][NMeL])) | 1.48e-05 cm/s |  | 11.6 ×10⁻⁶ cm/s | 
19 | CC(C)C[C@@H]1NC(=O)[C@@H](CC(C)C)NC(=O)[C@H]2CCCN2C(=O)[C@@H]2CCCN2C(=O)[C@@H](CC(C)C)NC(=O)[C@@H](CC(C)C)N(C)C(=O)[C@@H]2CCCN2C1=O [Design D7.5, LEU PRO *DLEU DLEU PRO DPRO DLEU] (cyclo(LP[dNMeL][dL]P[dP][dL])) | 6.72e-06 cm/s |  | 6.64 ×10⁻⁶ cm/s | 
20 | CC[C@H](C)[C@@H]1NC(=O)[C@H](C)NC(=O)[C@H](CC(C)C)NC(=O)[C@@H]2CCCN2C(=O)[C@@H](C(C)C)NC(=O)[C@H](CC(C)C)NC(=O)[C@@H]2CCCN2C(=O)[C@H]2CCCN2C(=O)[C@H](C)NC(=O)[C@H](Cc2ccccc2)NC(=O)[C@@H](CC(C)C)NC(=O)[C@H]2CCCN2C1=O [Design D12.8, PHE ALA DPRO PRO LEU DVAL PRO LEU ALA ILE DPRO DLEU] (cyclo(L[dV]PLAI[dP][dL]FA[dP]P)) | BQL | BQL |  | BQL
21 | CC[C@@H](C)[C@H]1NC(=O)[C@@H]2CCCN2C(=O)[C@H](CC(C)C)NC(=O)[C@@H](CC(C)C)NC(=O)[C@@H](Cc2ccccc2)NC(=O)[C@@H](Cc2ccccc2)NC(=O)[C@@H](C)NC(=O)[C@H]2CCCN2C(=O)[C@@H]2CCCN2C(=O)[C@@H](C(C)C)NC(=O)[C@@H]2CCCN2C(=O)[C@H]2CCCN2C1=O [Design D12.9, DILE DPRO PRO DVAL PRO DPRO DALA DPHE DPHE DLEU LEU PRO] (cyclo([dV]P[dP][dA][dF][dF][dL]LP[dI][dP]P)) | BQL | BQL |  | BQL
22 | *DPHE *LEU PRO DLEU VAL *DLEU PRO DILE *ALA *ALA [Design D10.65] | BQL | BQL |  | BQL
23 | DPRO PRO *DLEU DALA PRO *DLEU ALA *GLY *DVAL DPHE [Design D10.7] | BQL | BQL |  | BQL
24 | PRO DPRO DALA DPHE DLEU ILE DPHE *DALA LEU PRO NLE [Design D11.14.p1] | BQL | BQL |  | BQL
25 | PRO DPRO DALA DPHE DLEU ILE DPHE *DALA LEU PRO NLE [Design D11.14.p2] | BQL | BQL |  | BQL
26 | PRO DPRO DPHE *DLEU *DPHE DLEU ILE PRO *DLEU LEU [Design D10.15] | BQL | BQL |  | BQL
